Assay results: patent US8865734B2 (priority 2010, dated 2014)
≈ marks a conversion by molar mass, not a printed value.

How the values were obtained:
[1] = system: in vitro grown Mycobacteria (M. tuberculosis); experiment: QUM: Quantification of in vitro grown Mycobacteria (in vitro growth fluorescence assay); type: cell-based; conditions: Mycobacterium tuberculosis; MIC, 80% bacterial growth inhibition; in vitro growth; read-out: QUM
In short: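 Mycobacterium tuberculosis grown in vitro was quantified by fluorescence across compound dose responses. MIC is defined as the minimum concentration producing 80% growth inhibition.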

[2] = system: M. tuberculosis inside the host macrophage; experiment: QIM: Quantification of Intracellular Mycobacteria (intracellular growth assay, phenotypic cell-based); conditions: Mycobacterium tuberculosis; MIC, 80% bacterial growth inhibition; intracellular growth; read-out: QIM
In short: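 Phenotypic high-content assay measuring M. tuberculosis multiplication inside host macrophages, run as dose response. MIC is the minimum compound concentration giving 80% bacterial growth inhibition.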

CCc1nc2cc(Cl)ccn2c1C(=O)NCc1ccc(N2CCC(c3ccc(F)cc3)CC2)cc1 [Compound 287, 7-Chloro-2-ethyl-N-(4-(4-(4-fluorophenyl)piperidin-1-yl)benzyl)imidazo[1,2-a]pyridine-3-carboxamide]
MIC [1]: < 1 µM | MIC [2]: < 1 µM | melting point: 182.7 °C

CCc1nc2ccc(Cl)cn2c1C(=O)NCc1ccc(N2CCCC2)cc1 [Compound 211, 6-Chloro-2-ethyl-N-(4-(pyrrolidin-1-yl)benzyl)imidazo[1,2-a]pyridine-3-carboxamide]
MIC [1]: < 1 µM | MIC [2]: < 1 µM | melting point: 222 to 223 °C

CCc1nc2ccc(Cl)cn2c1C(=O)NCc1ccc(N2CCN(c3ccc(OC(F)(F)F)cc3)CC2)cc1 [Compound 178, 6-Chloro-2-ethyl-N-(4-(4-(4-(trifluoromethoxy)phenyl)piperazin-1-yl)benzyl)imidazo[1,2-a]pyridine-3-carboxamide]
MIC [1]: < 1 µM | MIC [2]: < 1 µM | melting point: 206.5 to 207 °C

CCc1nc2cc(C)ccn2c1C(=O)NCc1ccc(N2CCN(c3ccc(F)cc3)CC2)cc1 [Compound 309, 2-Ethyl-N-(4-(4-(4-fluorophenyl)piperazin-1-yl)benzyl)-7-methylimidazo[1,2-a]pyridine-3-carboxamide]
MIC [1]: < 1 µM | MIC [2]: < 1 µM | melting point: 203.7 °C

CCc1nc2ccc(Cl)cn2c1C(=O)NCc1ccc(C(F)(F)F)cc1 [Compound 147, 6-Chloro-2-ethyl-N-(4-(trifluoromethyl)benzyl)imidazo[1,2-a]pyridine-3-carboxamide]
MIC [1]: < 1 µM | MIC [2]: < 1 µM | melting point: 179 to 180 °C

CCc1nc2cc(Cl)ccn2c1C(=O)NCc1ccc(N2CCCCC2C)cc1 (stereo not drawn) [Compound 273, 7-chloro-2-ethyl-N-(4-(2-methylpiperidin-1-yl)benzyl)imidazo[1,2-a]pyridine-3-carboxamide]
MIC [1]: < 1 µM | MIC [2]: < 1 µM | melting point: 117.9 °C

CCc1nc2ccc(Cl)cn2c1C(=O)NCCc1ccc(Cl)cc1 [Compound 158, 6-Chloro-N-(4-chlorophenethyl)-2-ethylimidazo[1,2-a]pyridine-3-carboxamide]
MIC [1]: < 1 µM | MIC [2]: < 1 µM | melting point: 158 to 159 °C

CCc1nc2ccc(F)cn2c1C(=O)NCc1ccc(N2CCN(c3ccc(F)cc3)CC2)cc1 [Compound 306, 2-Ethyl-6-fluoro-N-(4-(4-(4-fluorophenyl)piperazin-1-yl)benzyl)imidazo[1,2-a]pyridine-3-carboxamide]
MIC [1]: < 1 µM | MIC [2]: < 1 µM | melting point: 200.9 °C

CCc1nc2cnccn2c1C(=O)NCc1ccc(OC(F)(F)F)cc1 [Compound 155, 2-Ethyl-N-(4-(trifluoromethoxy)benzyl)imidazo[1,2-a]pyrazine-3-carboxamide]
MIC [1]: > 20 µM | MIC [2]: > 20 µM | melting point: 176 to 177 °C

CCc1nc2cc(Cl)ccn2c1C(=O)NCc1ccc(N2CCC(O)CC2)cc1 [Compound 218, 7-Chloro-2-ethyl-N-(4-(4-hydroxypiperidin-1-yl)benzyl)imidazo[1,2-a]pyridine-3-carboxamide]
MIC [1]: < 1 µM | MIC [2]: > 20 µM | melting point: 179.1 to 180 °C

CCc1nc2c(F)cccn2c1C(=O)NCc1ccc(N2CCOCC2)cc1 [Compound 317, 2-Ethyl-8-fluoro-N-(4-morpholinobenzyl)imidazo[1,2-a]pyridine-3-carboxamide]
MIC [1]: < 1 µM | MIC [2]: < 1 µM | melting point: 197.3 °C

CCc1nc2ccc(Cl)cn2c1C(=O)NCc1ccc(N2CCC3CCCCC3C2)cc1 (stereo not drawn) [Compound 267, 6-Chloro-2-ethyl-N-(4-(octahydroisoquinolin-2(1H)-yl)benzyl)imidazo[1,2-a]pyridine-3-carboxamide]
MIC [1]: < 1 µM | MIC [2]: < 1 µM | melting point: 141.7 °C

CCc1nc2ccccn2c1C(=O)NCc1ccc(N2CCN(c3ccc(OC(F)(F)F)cc3)CC2)cc1 [Compound 181, 2-Ethyl-N-(4-(4-(4-(trifluoromethoxy)phenyl)piperazin-1-yl)benzyl)imidazo[1,2-a]pyridine-3-carboxamide]
MIC [1]: < 1 µM | MIC [2]: < 1 µM | melting point: 178 to 179 °C

CCc1nc2cc(Cl)ccn2c1C(=O)NCC1CCN(Cc2ccc(OC(F)(F)F)cc2)CC1 [Compound 228, 7-Chloro-2-ethyl-N-((1-(4-(trifluoromethoxy)benzyl)piperidin-4-yl)methyl)imidazo[1,2-a]pyridine-3-carboxamide]
MIC [1]: > 20 µM | MIC [2]: > 20 µM | melting point: 145 to 146 °C

CCc1nc2ccc(Cl)cn2c1CNc1ccc(N2CCN(c3ccc(F)cc3)CC2)cc1 [Compound 241, N-((6-Chloro-2-ethylimidazo[1,2-a]pyridin-3-yl)methyl)-4-(4-(4-fluorophenyl)piperazin-1-yl)aniline]
MIC [1]: > 20 µM | MIC [2]: > 20 µM | melting point: 191 to 192 °C

CCc1nc2cc(Cl)ccn2c1C(=O)NCc1ccc(N2CC(C)OC(C)C2)cc1 (stereo not drawn) [Compound 210, 7-Chloro-N-(4-(2,6-dimethylmorpholino)benzyl)-2-ethylimidazo[1,2-a]pyridine-3-carboxamide]
MIC [1]: 1 to 20 µM (≈ 0.427 to 8.54 µg/mL) | MIC [2]: < 1 µM | melting point: 165 to 166 °C

CCc1nc2cc(Cl)ccn2c1C(=O)NCc1ccc(Oc2ccc(OC(F)(F)F)cc2)cc1 [Compound 186, 7-Chloro-2-ethyl-N-(4-(4-(trifluoromethoxy)phenoxy)benzyl)imidazo[1,2-a]pyridine-3-carboxamide]
MIC [1]: < 1 µM | MIC [2]: < 1 µM | melting point: 141 to 142 °C

CCc1nc2ccccn2c1C(=O)NCc1ccc(N2CCC(COc3ccc(F)cc3)CC2)cc1 [Compound 295, 2-Ethyl-N-(4-(4-((4-fluorophenoxy)methyl)piperidin-1-yl)benzyl)imidazo[1,2-a]pyridine-3-carboxamide]
MIC [1]: < 1 µM | MIC [2]: < 1 µM | melting point: 144.2 °C

CCc1nc2cc(-c3cccnc3)ccn2c1C(=O)NCc1ccc(N2CCOCC2)cc1 [Compound 326, 2-Ethyl-N-(4-morpholinobenzyl)-7-(pyridin-3-yl)imidazo[1,2-a]pyridine-3-carboxamide]
MIC [1]: > 20 µM | MIC [2]: > 20 µM | melting point: 208.5 °C

CCc1nc2cc(Cl)ccn2c1C(=O)NCc1ccc(N2CCN(c3ccc(OC(F)(F)F)cc3)CC2)cc1 [Compound 179, 7-Chloro-2-ethyl-N-(4-(4-(4-(trifluoromethoxy)phenyl)piperazin-1-yl)benzyl)imidazo[1,2-a]pyridine-3-carboxamide]
MIC [1]: < 1 µM | MIC [2]: < 1 µM | melting point: 216.3 to 217 °C

CCc1nc2cc(Cl)ccn2c1C(=O)NCc1ccc(N2CCC(COc3ccc(F)cc3)CC2)cc1 [Compound 297, 7-Chloro-2-ethyl-N-(4-(4-((4-fluorophenoxy)methyl)piperidin-1-yl)benzyl)imidazo[1,2-a]pyridine-3-carboxamide]
MIC [1]: < 1 µM | MIC [2]: < 1 µM | melting point: 186.5 °C

CCc1nc2cc(Br)ccn2c1C(=O)NCc1ccc(N2CCOCC2)cc1 [Compound 324, 7-Bromo-2-ethyl-N-(4-morpholinobenzyl)imidazo[1,2-a]pyridine-3-carboxamide]
MIC [1]: < 1 µM | MIC [2]: < 1 µM | melting point: 202.6 °C

CCc1nc2ccc(Cl)cn2c1CNc1ccc(Oc2ccc(F)cc2)cc1 [Compound 242, N-((6-Chloro-2-ethylimidazo[1,2-a]pyridin-3-yl)methyl)-4-(4-fluorophenoxy)aniline]
MIC [1]: > 20 µM | MIC [2]: > 20 µM | melting point: 148.6 to 148.8 °C

CCc1nc2cc(N3CCN(C)CC3)ccn2c1C(=O)NCc1ccc(N2CCOCC2)cc1 [Compound 328, 2-Ethyl-7-(4-methylpiperazin-1-yl)-N-(4-morpholinobenzyl)imidazo[1,2-a]pyridine-3-carboxamide]
MIC [1]: > 20 µM | MIC [2]: > 20 µM | melting point: 204.8 °C

CCc1nc2ccc(Cl)cn2c1C(=O)NCc1ccc(N2CC(C)OC(C)C2)cc1 (stereo not drawn) [Compound 209, 6-Chloro-N-(4-(2,6-dimethylmorpholino)benzyl)-2-ethylimidazo[1,2-a]pyridine-3-carboxamide]
MIC [1]: < 1 µM | MIC [2]: < 1 µM | melting point: 176 to 177 °C

CCc1nc2ccc(Cl)cn2c1C(=O)NCc1ccc(N2CCN(Cc3ccc(OC(F)(F)F)cc3)CC2)cc1 [Compound 173, 6-Chloro-2-ethyl-N-(4-(4-(4-(trifluoromethoxy)benzyl)piperazin-1-yl)benzyl)imidazo[1,2-a]pyridine-3-carboxamide]
MIC [1]: < 1 µM | MIC [2]: < 1 µM | melting point: 138.1 to 138.7 °C

CCc1nc2cc(Cl)ccn2c1C(=O)NCc1ccc(N2CC(C)CC(C)C2)cc1 (stereo not drawn) [Compound 217, 7-Chloro-N-(4-(3,5-dimethylpiperidin-1-yl)benzyl)-2-ethylimidazo[1,2-a]pyridine-3-carboxamide]
MIC [1]: < 1 µM | MIC [2]: < 1 µM | melting point: 181.5 to 182.8 °C

CCc1nc2ccc(Cl)cn2c1C(=O)OCc1ccc(Oc2ccccc2)cc1 [Compound 196, 4-Phenoxybenzyl 6-chloro-2-ethylimidazo[1,2-a]pyridine-3-carboxylate]
MIC [1]: 1 to 20 µM (≈ 0.407 to 8.14 µg/mL) | MIC [2]: < 1 µM | melting point: 123.3 to 123.8 °C

CCc1nc2cc(Cl)ccn2c1C(=O)NCc1ccc(C(F)(F)F)cc1 [Compound 148, 7-Chloro-2-ethyl-N-(4-(trifluoromethyl)benzyl)imidazo[1,2-a]pyridine-3-carboxamide]
MIC [1]: < 1 µM | MIC [2]: < 1 µM | melting point: 196.2 to 196.9 °C

CCc1nc2ccc(Cl)cn2c1C(=O)NCc1ccc(N2CCC(COC)CC2)cc1 [Compound 281, 6-Chloro-2-ethyl-N-(4-(4-(methoxymethyl)piperidin-1-yl)benzyl)imidazo[1,2-a]pyridine-3-carboxamide]
MIC [1]: < 1 µM | MIC [2]: < 1 µM | melting point: 162.1 °C
